Source: patent US12610947B2, “Tobacco axillary bud growth inhibitors and methods of inhibiting growth of tobacco axillary buds” (Drexel Chemical Company, priority 2020, dated 2026)

Columns and labels:
TH241 tobacco = assay: Example 3 plot study: phytotoxicity on a scale of 0 to 5; assay type: in vivo; conditions: for Phytotoxicity: scale of 0 to 5
Method: (§1) A third study was conducted comparing the effects of various treatment compositions on TH241 tobacco. The study was designed in random blocks. Each test plot was formed by two rows of ten tobacco plants. Each treatment was applied to three separate plots. […] The first application was performed when the first axillary shoots were observed. Additional applications were performed when new axillary shoots were observed. Shoots longer than 3 cm were manually removed at the time of each application. The applications were performed using a manual backpack sprayer, spraying at a low pressure above the plant toward the stalk so that the composition ran down the stalk, contacting the leaf axils. Approximately 13 to 26 milliliters of composition were applied to each plant. The phytotoxicity of the treatment compositions was assessed and recorded on a scale of 0 to 5 based on visible symptoms. The number and size of the axil shoots was recorded every 7 to 14 days following the initial treatment application. Axillary shoots were assigned a level according to their length. Shoots less than 3 cm in length were assigned to level 1. Shoots between 3 and 15 cm were assigned to level 2. Shoots between 15 and 30 cm were assigned to level 3. Shoots between 30 and 45 cm were assigned to level 4. Shoots between 45 and 60 cm were assigned to level 5. And shoots greater than 60 cm were assigned to level 6. An estimated average length of shoots in each plot could then be calculated according to the number of shoots assigned to each level.
Phytotoxicity was assessed 9 days and 26 days after the first application of each treatment. […] Only mild symptoms of phytotoxicity were observed on the remaining plants. […] The phytotoxicity was likely more apparent due to the fact that by day 26, two pelargonic acid treatments had already been performed. […] No further evaluations were carried out.

[1] = system: axillary shoots of TH241 tobacco; assay: Example 3 plot study: axillary shoot length and effectiveness vs non-treated control; assay type: in vivo; conditions: for Axillary Shoot Length Results: level assigned by shoot length; for Axillary Shoot Length Results / Effectiveness Results: dosage and applications per Table 8; for Effectiveness Results: compared to the non-treated control group; for Effectiveness: compared to non-treated control
Method: as §1, with “level. […] For this reason, treatments 1, 3, 4, and 5 were applied three times; treatments 2, 6, and 7 were applied twice; and treatments 8 and 9 were applied only once. The effectiveness of each treatment method was calculated as compared to the non-treated control group.” for “level.”

tobacco = assay: Example 4 (Farm A and Farm B): phytotoxicity on a scale of 0 to 5; conditions: in vivo
Method: (§2) A fourth study was conducted simultaneously by two separate farms (designated Farm A and Farm B) to further assess the effectiveness of the various treatments including under varying conditions.
The overall study was designed in random blocks. The treatments utilized were Biosucker, Bioantak (37 DOT), Antak-68.5, Beloukha, Sharpen 33%, and a control treatment that was untreated. On each farm, each test plot was formed by a single line of 20 plants. Each treatment was applied to three separate plots on each farm. […] The first application was applied when the first axillary shoots were observed. Additional applications were applied when the new axillary shoots were observed. Shoots longer than 3 cm were manually removed at the time of each application. The applications were performed using a manual backpack sprayer, spraying at a low pressure above the plant toward the stalk so that the composition ran down the stalk, contacting the leaf axils. Approximately 20 milliliters of composition were applied to each plant. The phytotoxicity of the treatment compositions was assessed and recorded on a scale of 0 to 5 based on visible symptoms. The number and size of the axil shoots was recorded every 6 to 8 days following the initial treatment application. […] An estimated average length of shoots in each plot could then be calculated according to the number of shoots assigned to each level. […]

[2] = system: axillary shoots of tobacco; assay: Example 4 (Farm A and Farm B): axillary shoot length, effectiveness vs non-treated control, effective period; assay type: in vivo; conditions: Farm A, before second application
Method: as §2
The overall study was designed in random blocks. The treatments utilized were Biosucker, Bioantak (37 DOT), Antak-68.5, Beloukha, Sharpen 33%, and a control treatment that was untreated. On each farm, each test plot was formed by a single line of 20 plants. Each treatment was applied to three separate plots on each farm. […] The first application was applied when the first axillary shoots were observed. Additional applications were applied when the new axillary shoots were observed. Shoots longer than 3 cm were manually removed at the time of each application. […] The phytotoxicity of the treatment compositions was assessed and recorded on a scale of 0 to 5 based on visible symptoms. The number and size of the axil shoots was recorded every 6 to 8 days following the initial treatment application. […] An estimated average length of shoots in each plot could then be calculated according to the number of shoots assigned to each level.
The results of the length of axillary shoots measured at Farm A and Farm B are shown in Table 15 and Table 16, respectively. […]
The effectiveness of each treatment method and each farm was calculated as compared to the non-treated control group.

## CCCCCCCCC(=O)O [Pelargonic acid, pelargonic acid]
TH241 tobacco; August 12, D + 26 days
  Phytotoxicity: 2.0 B
TH241 tobacco; August 21, after a third application
  symptoms of phytotoxicity: symptoms of phytotoxicity were still more pronounced
TH241 tobacco; July 26, D + 9 days
  Phytotoxicity: 1.6 C
[1]; 5-Aug, D + 19 days
  Axillary Shoot Length Results: 1.3 Cd
[1]; 12-Aug, D + 26 days
  Axillary Shoot Length Results: 2.6 C
[1]; 21-Aug, D + 35 days
  Axillary Shoot Length Results: 1.2 Abc
[1]; 26-Jul, D + 9 days
  Axillary Shoot Length Results: 1.2 C
[1]; 29-Aug, D + 43 days
  Axillary Shoot Length Results: 2.3 bcde
[1]; Aug 5, D + 19 days
  Effectiveness Results: 61%
[1]; Aug 12, D + 26 days
  Effectiveness Results: 37%
[1]; Aug 21, D + 35 days
  Effectiveness Results: 80%
[1]; Aug 29, D + 43 days
  Effectiveness Results: 61%
[1]; July 26, D + 9 days
  Effectiveness Results: 39%
[1]; Oct. 10, D + 85 days
  Effectiveness: 8%
  Axillary Shoot Length Results: 5.5 B
[1]; Sept. 11, D + 56 days
  Effectiveness Results: 35%
  Axillary Shoot Length Results: 3.9 C
[1]; Sept. 24, D + 69 days
  Effectiveness Results: 16%
  Axillary Shoot Length Results: 5.1 C
[1]; Sept. 30, D + 75 days
  Effectiveness: 9%
  Axillary Shoot Length Results: 5.4 B
[1]; after only 9 days
  shoot length: ~3 cm
tobacco
  phytotoxicity symptoms: highest levels of burns and deformation
[2]
  day until which shoot length was the same as the standard treatment: 27 days
